From patent US20250145588A1, “CRYSTAL FORM OF TAVAPADON, AND PREPARATION METHOD THEREFOR AND USE THEREOF” (CRYSTAL PHARMACEUTICAL (SUZHOU) CO., LTD., priority 2022, published 2025)
“Also recorded” adds a separate entry of the source. Blank lines part the entries; values can stand above or below the compound they belong to.

Experiments:
Type in all cases: physicochemical
[1] = Storage stability of solid forms (crystalline form by XRPD, chemical purity by HPLC); details: for Purity after storage: HPLC
Description: XRPD patterns in the present disclosure were acquired by a Bruker X-ray powder diffractometer. The parameters of the X-ray powder diffraction method of the present disclosure are as follows: • X-Ray source: Cu, Kα • Kα1 (Å): 1.54060; Kα2 (Å): 1.54439 • Kα2/Kα1 intensity ratio: 0.50
A certain amount of the prior art solid obtained in Example 4 was packaged with sealed container (with desiccant inside), and stored under 40° C./75% RH. The solid form before and after storage was confirmed by XRPD.
A certain amount of Form CSI was packaged with corresponding package conditions, and then stored under 25° C./60% RH, 40° C./75% RH and 60° C./75% RH. Crystalline form and chemical purity were checked by XRPD and HPLC, respectively. Form CSI kept stable for at least 6 months when stored at 25° C./60% RH open and sealed (with desiccants) package, 40° C./75% RH open and sealed (with desiccants) package, and 60° C./75% RH sealed (with desiccants) package.
A certain amount of Form CSII sample was packaged with corresponding package conditions, and then stored at 25° C./60% RH and 40° C./75% RH. Crystalline form was checked by XRPD. Form CSII kept stable for at least 1 month for both open and sealed (with desiccants) package conditions at 25° C./60% RH and 40° C./75% RH.

[2] = Hygroscopicity and humidity stability by DVS (0% RH-95% RH-0% RH cycle at 25° C., XRPD before and after); details: for Hygroscopicity (in words) / Weight gain (water uptake) at 80% RH: DVS; for Form change after DVS test (humidity stability): one cycle 0% RH-95% RH-0% RH, XRPD
Description: DVS data in the present disclosure were measured via an SMS (Surface Measurement Systems Ltd.) intrinsic DVS instrument. The instrument control software is DVS-Intrinsic control software. Typical Parameters for DVS test are as follows: • Temperature: 25° C. • Gas and flow rate: N2, 200 mL/minRH range: 0% RH to 95% RH
The hygroscopicity of Form CSI was determined by a DVS instrument with a certain amount of sample. The mass at each relative humidity was recorded during a cycle of 0% RH-95% RH-0% RH at 25° C., and XRPD was collected before and after DVS test.
The hygroscopicity of Form CSII was determined by DVS instrument with a certain amount of sample. The mass at each relative humidity was recorded during the cycle of 0% RH-95% RH-0% RH at 25° C., and XRPD was tested before and after DVS.

[3] = Physical stability upon mechanical force (ball-milling, XRPD before and after grinding); details: 500 rpm, 5 minutes
Description: Form CSI was ground using a ball-milling at a vibration speed of 500 rpm for 5 minutes.
Form CSII was ground using a ball-milling at a vibration speed of 500 rpm for 5 minutes.

Solid form after storage ([1]; 25° C./60% RH, sealed (with desiccants), 1 month, XRPD): Form CSII | Time kept stable on storage ([1]; open and sealed (with desiccants) package at 25° C./60% RH and 40° C./75% RH): at least 1 month | Hygroscopicity (in words) [2]: almost non hygroscopic | Weight gain (water uptake) at 80% RH [2]: 0.19%
Structure (SMILES): Cc1cc(Oc2ncccc2C(F)(F)F)ccc1-c1c(C)c(=O)[nH]c(=O)n1C (single isomer, unassigned) [Form CSII]
Solid form after storage ([1]; 40° C./75% RH, sealed (with desiccants), 1 month, XRPD): remains unchanged; also recorded: Form CSII | Form change after DVS test (humidity stability) [2]: No form change; also recorded: remains unchanged | Form change after grinding [3]: no form change; also recorded: doesn't change after grinding

Structure (SMILES): Cc1cc(Oc2ncccc2C(F)(F)F)ccc1-c1c(C)c(=O)[nH]c(=O)n1C [prior art solid, reference compound]
Solid form change after storage ([1]; 40° C./75% RH, sealed container with desiccant, 10 days, XRPD): undergoes crystal transformation; also recorded: undergoes crystalline transformation

Time kept stable on storage ([1]; 25° C./60% RH open and sealed (with desiccants), 40° C./75% RH open and sealed (with desiccants), 60° C./75% RH sealed (with desiccants)): at least 6 months | Purity after storage ([1]; 25° C./60% RH, open, 6 months): 99.85% | Solid form after storage ([1]; 25° C./60% RH, open, 6 months, XRPD): Form CSI | Purity after storage ([1]; 25° C./60% RH, sealed (with desiccants), 6 months): 99.85% | Solid form after storage ([1]; 25° C./60% RH, sealed (with desiccants), 6 months, XRPD): Form CSI | Time remaining unchanged on storage ([1]; 40° C./75% RH): at least 6 months | Purity after storage ([1]; 40° C./75% RH, open, 6 months): 99.85% | Solid form after storage ([1]; 40° C./75% RH, open, 6 months, XRPD): Form CSI | Purity after storage ([1]; 40° C./75% RH, sealed (with desiccants), 6 months): 99.85% | Solid form after storage ([1]; 40° C./75% RH, sealed (with desiccants), 6 months, XRPD): Form CSI | Purity after storage ([1]; 60° C./75% RH, sealed (with desiccants), 6 months): 99.85% | Solid form after storage ([1]; 60° C./75% RH, sealed (with desiccants), 6 months, XRPD): Form CSI | Time remaining unchanged on storage ([1]; 60° C./75% RH, sealed package): at least 6 months | Hygroscopicity (in words) [2]: almost non hygroscopic | Weight gain (water uptake) at 80% RH [2]: 0.05%
Structure (SMILES): Cc1cc(Oc2ncccc2C(F)(F)F)ccc1-c1c(C)c(=O)[nH]c(=O)n1C (single isomer, unassigned) [Form CSI]
Form change after DVS test (humidity stability) [2]: No form change; also recorded: remains unchanged | Form change after grinding [3]: no form change; also recorded: doesn't change after grinding
